# Assay results published in publication PMC11910330, “Familial Alzheimer’s disease mutations in amyloid precursor protein impair calcineurin signaling to NMDA receptors” (The Journal of Biological Chemistry, 2024).
# No end group written: not given here. *: point of attachment. Biotin = O=C1N[C@H]2[C@H](CS[C@H]2CCCCC(=O)*)N1
# Tested on: human recombinant GST-CaN
# Assay: Peptide/CaN interaction assay (biotinylated peptides on streptavidin beads, GST-CaN pull-down, Western blot)
# Type: binding
# Settings: for percent of CaN recovered (signal for each/signal for CaN standard * 40%): 10 μg N-terminally biotinylated peptide on streptavidin beads, 200 ng GST-CaN, 30 min, 4 °C, Western blot, mean (n=7; APP-17mer n=3); for Western blot data following CaN interaction with biotinylated peptides, (signal for each/signal for CaN standard) * 40%: biotinylated APP peptides, GST-CaN pull-down
# Text: Recombinant rabbit monoclonal to APP (clone Y188; Abcam cat# ab32136; 1:5000 dilution), rabbit polyclonal to APLP1 (Proteintech cat # 12305-2-AP; 1:1000 dilution), and rabbit polyclonal to APLP2 (Proteintech cat # 15041-1-A; 1:500 dilution) were used to detect native APP family members on western blots or recombinant GFP-tagged APP family members as validation (see Fig. S1). A horseradish peroxidase (HRP)-conjugated goat anti-rabbit antibody (Sigma-Aldrich Cat# 12-348; 1:10,000 dilution) was used as secondary antibody for these western blots, while an HRP-conjugated mouse monoclonal antibody to GFP (Invitrogen cat # MA 515256HRP; 1:1000 dilution) was used to independently verify the expression of GFP or GFP-tagged APP family members. A mouse monoclonal antibody CaN (BD Biosciences Cat# 556350; 1:1000 dilution) was used for the detection of native and recombinant CaN on western blots and for co-immunoprecipitation and peptide-based interaction assays experiments, while nonspecific mouse IgG (Thermo Fisher Scientific Cat# 02-6502) was used as a control. An HRP-conjugated goat anti-mouse antibody (Sigma-Aldrich Cat# 12-349; 1:10,000 dilution) […] was used as secondary antibody for these western blots, while HRP-conjugated protein G (Sigma-Aldrich cat # 18-161; 1:5000 dilution) was used for the secondary detection of CaN in co-immunoprecipitation experiments. A mouse monoclonal anti-Flag antibody (Sigma-Aldrich Cat# F1804) was used for co-immunoprecipitations of recombinant APP family members, while an HRP-conjugated version of this antibody (Sigma-Aldrich Cat# A8592; 1:1000) was used for the detection on western blots.
# The N-terminally biotinylated AKAP79(330-357) and Ht31peptides were synthesized by Biomolecules Midwest and used as positive and negative controls for CaN interaction as previously described ([20]).
# Either PBS with fresh 0.1% Tween-20 and 0.1% bovine serum albumin added or a modified IP buffer (150 mM NaCl, 10 mM Hepes; 5 mM EDTA; pH 7.4) with fresh 0.5% CHAPSO and 0.1% bovine serum albumin was used for these assays. […] Streptavidin-coated dynabeads (20 μl; Invitrogen cat # 65601) were washed and then incubated with 10 μg biotinylated peptides for 15 min at 4 °C in 200 μl of buffer. Beads were washed rapidly (400 μl; 3×) to remove unbound peptide and then incubated with 200 ng human recombinant GST-CaN in 200 μl buffer for 30 min at 4 °C. Following three washes (400 μl; 5 min each), complexes were eluted in 40 μl 2× Laemmli buffer, and samples were separated by SDS-PAGE and analyzed by Western blotting as above. Blots were probed with the mouse monoclonal anti-CaN antibody followed by anti-mouse HRP for secondary detection and visualized by enhanced chemiluminescence and digitally acquired as above. For each blot, the intensity of each band was normalized to that of from the GST-CaN standard (80 ng). As this standard represented 40% of the 200 ng input, the ratio was multiplied by 40 to achieve the percent of CaN recovered.
Substance,percent of CaN recovered (signal for each/signal for CaN standard * 40%) (Fig. 1H) [%],CaN binding (in words) (Fig. 1H),"Western blot data following CaN interaction with biotinylated peptides, (signal for each/signal for CaN standard) * 40% (mean of n = 6) [%]","Western blot data following CaN interaction with biotinylated peptides, (signal for each/signal for CaN standard) * 40% (replicate 1) [%]","Western blot data following CaN interaction with biotinylated peptides, (signal for each/signal for CaN standard) * 40% (replicate 2) [%]","Western blot data following CaN interaction with biotinylated peptides, (signal for each/signal for CaN standard) * 40% (replicate 3) [%]","Western blot data following CaN interaction with biotinylated peptides, (signal for each/signal for CaN standard) * 40% (replicate 4) [%]","Western blot data following CaN interaction with biotinylated peptides, (signal for each/signal for CaN standard) * 40% (replicate 5) [%]","Western blot data following CaN interaction with biotinylated peptides, (signal for each/signal for CaN standard) * 40% (replicate 6) [%]",CaN binding lower than the PVIVIT peptide (Fig. 1H) [%],"CaN binding relative to the APP (WT) peptide (in words) (Fig. 4B, FAD mutant peptides)"
"AKAP79: N-terminally biotinylated peptide derived from the AKAP79 CaN-binding domain, positive control (Biotin-EESKRMEPIAIIITDTEISEFDVTKSKN) [reference compound]",21.96,,,,,,,,,,
GVVIATVIVITLVMLKK [APP-17mer],2.14,minimal affinity for CaN,,,,,,,,,
"MAGPHIVIVITGPHEE [T639I, biotinylated APP peptide incorporating the FAD mutation T639I]",,,54.45,94.68,40.64,44.78,37.21,55.66,53.70,,
MAGPHSLIVLSGPHEE [APLP1],13.18,,,,,,,,,~80,
"MAGPHTMIVITGPHEE [V640M, biotinylated APP peptide incorporating the FAD mutation V640M]",,,42.81,69.77,35.90,61.53,25.01,31.86,32.78,,
"MAGPHTVFVITGPHEE [I641F, biotinylated APP peptide incorporating the FAD mutation I641F]",,,22.96,23.46,18.34,34.56,13.72,12.91,34.77,,reduced substantially
"MAGPHTVIFITGPHEE [V642F, biotinylated APP peptide incorporating the FAD mutation V642F]",,,43.86,84.45,46.13,42.80,26.46,29.11,34.24,,
"MAGPHTVIIITGPHEE [V642I, biotinylated APP peptide incorporating the FAD mutation V642I]",,,44.18,54.96,45.24,82.71,28.44,26.76,26.97,,
